Here are results for 23 molecules from patent US8921405B2, “Compounds” (Orexo AB, priority 2009, dated 2014).

Broadly, the inhibition is the drop in the measured response relative to a control, in per cent. As usually defined, the % inhibition is the drop in the measured response relative to a control, in per cent.

The target of one assay is T1, recombinant human mPGES-1 (Homo sapiens, UniProt O14684).
T1 construct: made in house; host or cells: Rosetta E. coli (membrane/microsome fraction)
T1 sequence (O14684 1-152): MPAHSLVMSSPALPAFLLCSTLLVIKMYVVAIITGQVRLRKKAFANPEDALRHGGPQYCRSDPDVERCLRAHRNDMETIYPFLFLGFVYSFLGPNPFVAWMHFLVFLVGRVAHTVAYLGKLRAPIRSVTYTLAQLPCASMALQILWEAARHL
Kind of assay: mPGES-1 HTRF assay (inhibition of PGE2 formation from PGH2). Format: biochemical.
Settings: not given
As for the experimental part: The basis of the assay used is to measure the inhibition of microsomal prostaglandin E2 synthase-1 (mPGES-1) dependent prostaglandin (PG) E2 formation from PGH2 by different compounds. Thus, the formation of PGE2 is used as signal and a lowering of this signal can be interpreted as inhibition of mPGES-1. […] Microsomes from Rosetta E. coli bacteria expressing recombinant human mPGES-1 can be derived as described below: Inoculate 5 ml LB with Amp and Chloro with bacteria from freeze culture. Incubate over night at 37° C. with 200 rpm. Thereafter, inoculate 500-800 ml LB containing Amp and Chloro with the 5 ml on culture and grow to OD640 of 0.6-0.8. Chill the culture to +4° C. before induction. Induce the culture with IPTG at a final concentration of 400 μM. Express the protein at room temp 18-23° C. with 200 rpm shaking over night. The following steps can be performed on the following day: • 1. Spin down the cells in 250 ml centrifuge flasks for 15 min at 7000 rpm • 2. Dissolve the pellet from 250 ml culture in 12.5 ml homogenization buffer • 3. Disintegrate the cells by sonication, 4×10 seconds at 35% amplitude • 4. Add 2.5 ml MgCl2 (100 mM) and DNase 12.5 μl (0.8 mg/ml) and incubate on ice for 30 min • 5. Spin down the bacteria debris and save the supernatant, 7000 rpm for 15 min • 6. Isolate the protein containing membranes in the supernatant by ultracentrifugation 45000×g for 1 hour. • 7. Discard the supernatant and dissolve the pellet in 20 mM KPi buffer and aliquot the enzyme and store aliquots at −80° C. Before each experiment is performed an aliquot of the enzyme is thawed and it can then be dissolved in 0.1 M KPi pH 7.4 buffer containing 2.5 mM GSH. 50 μl of this enzyme solution is subsequently dispensed in a 384-well plate at room temperature. 0.5 μl of the inhibitor dissolved in DMSO is thereafter added to each well and incubated for 25 minutes at room temperature. Subsequently, 2 μl of PGH2 dissolved in an appropriate solvent is added to each well and after one minute at room temperature, the acidified stop solution containing FeCl2 is added. 4 μl of the total volume is transferred to a separate plate and diluted 750-fold in two separate steps before quantification of PGE2. In order to quantitate the amount of PGE2 that has been formed, a homogenous time resolved fluorescent (HTRF) detection of PGE2 can be performed by the use of a commercially available kit from CisBio essentially according to the manufacturer's protocol. […] The sealing film is thereafter removed from the NC wells. • 5 μl Eu3+-cryptate labeled anti-PGE2 can now be added to rows 1 to 24 by using a Multidrop. • The plate can now be covered with sealing film. • The plate can now be centrifuge at 1200 rpm for 1 minute and place at 4° C. overnight. After the over night incubation the fluorescence is measured by the use of an appropriate microplate reader. […] The extent of the specific HTRF is measured as a ratio of the emission intensity at 665 nm vs. that at 620 nm. A standard curve using synthetic PGE2 is used to quantify the amount of PGE2 in unknown samples. The degree of inhibition can be calculated as percent inhibition by dividing the amount of PGE2 formed in unknown samples by the amount of PGE2 formed in control samples.
In the case of `CC(=O)NC(C)c1ccc(Cl)c(Nc2nc3cc(C(=O)Nc4ccc(Br)cc4)ccc3n2C)c1` (centres unmarked) [Example 1, 2-[5-(1-Acetamidoethyl)-2-chlorophenylamino]-N-(4-bromophenyl)-1-methylbenzimidazole-5-carboxamide], the inhibition at 10 µM was determined as 100%.

Still in this assay, the particulars now being: compound concentration of 10 μM, HTRF assay.
Consider `Cn1c(Nc2cc(CNC(=O)C3(C)CCCCC3)ccc2Cl)nc2cc(Cl)c(NC(=O)C3CCCC3)cc21` [Example 6, N-{4-chloro-3-[5-chloro-6-(cyclopentylamido)-1-methyl-2-benzimidazolylamino]benzyl}-1-methylcyclohexylamide], for which the “% inhibition” value was found to be 100%.

Still in this assay, the particulars now being: compound concentration of 10 μM, HTRF assay; read-out: % inhibition.
With `Cn1c(Nc2cc(CNC(=O)C3(C)CCCCC3)ccc2Cl)nc2cc(C(=O)NC3CCCC3)c(Cl)cc21` [Example 3, 6-Chloro-2-{2-chloro-5-[(1-methylcyclohexylamido)methyl]phenylamino}-N-cyclopentyl-1-methylbenzimidazole-5-carboxamide], the inhibition at 10 µM was found to be 100%.
Still for that read-out and setting: the value for `CC1(C(=O)NCc2ccc(Cl)c(Nc3nc4cc(C(=O)N5CCCC5)ccc4[nH]3)c2)CCCCC1` [Example 4, N-{4-Chloro-3-[5-(1-pyrrolidinylcarbonyl)-2-benzimidazolylamino]benzyl}-1-methylcyclohexylamide] was 83%; that for `Cn1c(Nc2cc(CNC(=O)C3(C)CCCCC3)ccc2Cl)nc2cc(Cl)c(NC(=O)OC(C)(C)C)cc21` [Example 5, tert-Butyl 5-chloro-2-{2-chloro-5-[(1-methylcyclohexylamido)methyl]phenylamino}-1-methyl-6-benzimidazolylcarbamate] was 100%.
On the same count and under the same terms, to `Cn1c(Nc2cc(CNC(=O)C3(C)CCCCC3)ccc2Cl)nc2cc(S(=O)(=O)NC3CCCC3)ccc21` [Example 7, N-{4-Chloro-3-[5-(N-cyclopentylsulfamoyl)-1-methyl-2-benzimidazolylamino]benzyl}-1-methylcyclohexylamide] belongs 98%; to `Cn1c(Nc2cc(CNC(=O)C3(C)CC3)ccc2Cl)nc2cc(C(=O)NCC3CCCCC3)ccc21` [Example 8, 2-{2-Chloro-5-[(1-methylcyclopropylamido)methyl]phenylamino}-N-cyclohexylmethyl-1-methylbenzimidazole-5-carboxamide], 98%.
Same read-out and setting: the value for `Cn1c(Nc2cc(CNS(=O)(=O)c3cccs3)ccc2Cl)nc2cc(C(=O)NCC3CCCCC3)ccc21` [Example 9, 2-{2-Chloro-5-[(2-thienylsulfonamido)methyl]phenylamino}-N-cyclohexylmethyl-1-methylbenzimidazole-5-carboxamide] was 98%; that for `Cn1c(Nc2cc(CNC(=O)C3(C)CC3)ccc2Cl)nc2cc(C(=O)Nc3ccc(Br)cc3)ccc21` [Example 10] was 100%.
As to `Cn1c(Nc2cc(CNC(=O)C3(C(F)(F)F)CC3)ccc2Cl)nc2cc(C(=O)NCC3CC3)ccc21` [Example 11, 2-{2-chloro-5-[(1-trifluoromethylcyclopropylamido)methyl]phenylamino}-N-cyclopropylmethyl-1-methylbenzimidazole-5-carboxamide], the inhibition at 10 µM came out at 100%.
Same read-out and setting: to `Cn1c(Nc2cc(CNC(=O)C3(C)CCCCC3)ccc2Cl)nc2cc(C(=O)N3CCCC3)ccc21` [Example 12, N-{4-Chloro-3-[1-methyl-5-(1-pyrrolidinylcarbonyl)-2-benzimidazolylamino]benzyl}-1-methylcyclohexylamide] belongs 100%; to `CC1(C(=O)NCc2ccc(Cl)c(Nc3nc4ccc(C(=O)NC5CCCC5)cc4[nH]3)c2)CCCCC1` [Example 13, 2-{2-Chloro-5-[(1-methylcyclohexylamido)methyl]phenylamino}-N-cyclopentylbenzimidazole-5-carboxamide], 100%.
As for `Cn1c(Nc2cc(CNC(=O)C3(C)CCCCC3)ccc2Cl)nc2cc(C(=O)NC3CCCC3)ccc21` [Example 14, 2-{2-Chloro-5-[(1-methylcyclohexylamido)methyl]phenylamino}-N-cyclopentyl-1-methylbenzimidazole-5-carboxamide], the inhibition at 10 µM came out at 100%.
With `Cn1c(Nc2cc(CNC(=O)C3(C)CCCCC3)ccc2Cl)nc2cc(C(=O)NCCOC(C)(C)C)ccc21` [Example 15, N-(2-tert-Butoxyethyl)-2-{2-chloro-5-[(1-methylcyclohexylamido)methyl]phenylamino}-1-methylbenzimidazole-5-carboxamide], the inhibition at 10 µM was 99%.
Still for that read-out and setting: to `Cn1c(Nc2cc(CNC(=O)C3(C)CCCCC3)ccc2Cl)nc2cc(C(=O)NCC3CCCCC3)ccc21` [Example 16, 2-{2-Chloro-5-[(1-methylcyclohexylamido)methyl]phenylamino}-N-cyclohexylmethyl-1-methylbenzimidazole-5-carboxamide] belongs 80%.
Same read-out and setting: the value for `Cn1c(Nc2cc(CNC(=O)C3(C)CCCCC3)ccc2Cl)nc2cc(C(=O)NCCN3CCCCC3)ccc21` [Example 17, 2-{2-Chloro-5-[(1-methylcyclohexylamido)methyl]phenylamino]-1-methyl-N-[2-(1-piperidinyl)ethyl]benzimidazole-5-carboxamide] was 95%; that for `Cn1c(Nc2cc(CNC(=O)C3(C)CCCCC3)ccc2Cl)nc2cc(C(=O)NCC3CCCO3)ccc21` (centres unmarked) [Example 18, 2-{2-Chloro-5-[(1-methylcyclohexylamido)methyl]phenylamino]-1-methyl-N-[(2-tetrahydrofuryl)methyl]benzimidazole-5-carboxamide] was 98%.
Same read-out and setting: to `CN1CCCCC1CNC(=O)c1ccc2c(c1)nc(Nc1cc(CNC(=O)C3(C)CCCCC3)ccc1Cl)n2C` (centres unmarked) [Example 19, 2-{2-Chloro-5-[(1-methylcyclohexylamido)methyl]phenylamino]-1-methyl-N-[(1-methyl-2-piperidinyl)methyl]benzimidazole-5-carboxamide] belongs 98%; to `Cn1c(Nc2cc(CNC(=O)C3(C)CCCCC3)ccc2Cl)nc2cc(C(=O)NCc3ccccn3)ccc21` [Example 20, 2-{2-Chloro-5-[(1-methylcyclohexylamido)methyl]phenylamino}-1-methyl-N-(2-pyridinylmethyl)benzimidazole-5-carboxamide], 100%.
In the case of `Cn1c(Nc2cc(CNC(=O)C3(C)CCCCC3)ccc2Cl)nc2cc(C(=O)Nc3ccc(Br)cc3)ccc21` [Example 21, N-(4-Bromophenyl)-2-{2-chloro-5-[(1-methylcyclohexylamido)methyl]-phenylamino}-1-methylbenzimidazole-5-carboxamide], the inhibition at 10 µM is 100%.
The same measure, in the same setting: to `CN(C(=O)c1ccc2c(c1)nc(Nc1cc(CNC(=O)C3(C)CCCCC3)ccc1Cl)n2C)C1CCCC1` [Example 22, 2-{2-Chloro-5-[(1-methylcyclohexylamido)methyl]phenylamino}-N-cyclopentyl-N,1-dimethylbenzimidazole-5-carboxamide] belongs 98%; to `CC1(C(=O)NCc2ccc(Cl)c(Nc3nc4cc(C(=O)NC5CCCC5)c(Cl)cc4n3C3CCCC3)c2)CCCCC1` [Example 23, 6-Chloro-2-{2-chloro-5-[(1-methylcyclohexylamido)methyl]phenylamino}-N,1-dicyclopentylbenzimidazole-5-carboxamide], 100%.
Consider `CC1(C(=O)NCc2ccc(Cl)c(Nc3nc4cc(Cl)c(C(=O)NC5CCCC5)cc4[nH]3)c2)CCCCC1` [Example 24, 6-Chloro-2-{2-chloro-5-[(1-methylcyclohexylamido)methyl]phenylamino}-N-cyclopentylbenzimidazole-5-carboxamide], for which the inhibition at 10 µM was found to be 97%.
